# From patent publication US20100233231A1, “USE OF CRYOGENIC PROCESSING TO OBTAIN A SUBSTANTIALLY-THICKENED FORMULATION” (priority 2009, published 2010)
# Assay: Consistency and homogeneity of the formulation after cryo-processing (observation)
# Type: physicochemical
# Conditions: 8 cycles
# Procedure: Fish oil was cured to a film with the use of heat.
# It was processed in a Spex Certiprep cryogrinder for 8 cycles, each cycle lasting 2.0 minutes and with a 2.0 minute between-cycle cool down to maintain the system at cryogenic temperatures.
smiles,measurement,setting,value
CCCCCCCCCCCCCCCCO [Cetyl Alcohol],consistency of resulting formulation,"Example 7: 30% in 70% fish oil 30% Vitamin E, 30 impacts per second",highly viscous and smooth
O=C(CO)[C@@H](O)[C@H](O)[C@H](O)CO [Fructose],consistency of resulting formulation,"Example 5: 40% in 100% fish oil, 20 impacts per second",highly viscous upon standing and was extremely shear thinning
CO[C@H]1C[C@@H]2CC[C@@H](C)[C@@](O)(O2)C(=O)C(=O)N2CCCC[C@H]2C(=O)O[C@H]([C@H](C)C[C@@H]2CC[C@@H](O)[C@H](OC)C2)CC[C@H](C)/C=C(\C)[C@@H](O)[C@@H](OC)C(=O)[C@H](C)C[C@H](C)/C=C/C=C/C=C/1C [Rapamycin derivative],consistency of resulting formulation,"Example 2: 31% in 70% fish oil 30% vitamin E, 20 impacts per second",highly viscous and shear thinning with small crystals evident throughout the sample
